Tested on: ICD patients with a LVEF of 40% or less
Test: clinical study ALPHEE: prevention of cardiovascular hospitalization
Format: in vivo
Settings: clinical trial using amiodarone as calibrator; oral, with a meal
From the text: The primary objective of the study is to assess the efficacy of celivarone for the prevention of ICD interventions or death. The study also aims at assessing the usefulness of celivarone for reducing occurrences of cardiovascular hospitalization in treated patients.
This is a dose-finding multicenter, multinational, randomized, double blind, placebo controlled, parallel arm study including a positive control calibrator arm. Patients are randomized to one of three doses of celivarone or placebo or to the amiodarone calibrator arm.
The efficacy of celivarone is based on data regarding appropriate ICD intervention obtained by regular ICD interrogation, performed as described below, as well as on data regarding death of the randomized patients, in particular sudden death, and on data regarding cardiovascular hospitalization occurrences.
The study includes a one week screening period, followed by a treatment period scheduled for a minimum duration of 6 months for the last patient recruited and going from the first day of treatment to the end of treatment visit to be done 10-15 days prior to the scheduled study end date. […]
Cardiovascular hospitalization is an hospitalization with a cardiovascular cause, as assessed by the investigator. […]

CCCCc1oc2ccc(C(=O)OC(C)C)cc2c1C(=O)c1ccc(CCCN(CCCC)CCCC)cc1.O=C(O)/C=C/C(=O)O [celivarone, 2-butyl-3-[4-[3-(dibutylamino)propyl]benzoyl]-1-benzofuran-5-carboxylic acid isopropyl ester fumarate]
prevention of cardiovascular hospitalization: effective

Source: patent US20110207811A1, “USE OF CELIVARONE FOR REDUCING OCCURRENCES OF CARDIOVASCULAR HOSPITALIZATION” (SANOFI-AVENTIS, priority 2010, published 2011)
